The numbers were not newly measured in article PMC7926623 (Marine Drugs, 2021), which cites them from elsewhere.

Broadly, the IC50 is the concentration that gives 50% inhibition.

For this data set, the system named is rα6/α3β2β3 nAChR. As to conditions: cited from earlier work.

Turning to α-Conotoxin TxIB, the 50% inhibitory concentration (IC50) is 28.4 nM.
